Assay results published in article PMC9578396, “Intrinsic Antibacterial Activity of Xeruborbactam In Vitro: Assessing Spectrum and Mode of Action” (Antimicrobial Agents and Chemotherapy, 2022).
Read-outs that look alike come from different tables or passages of the source.

How the values were obtained:
[1] = test system: A. baumannii strain ATCC 17978; assay: Fluorescence microscopy, cellular morphology; type: cell-based, Acinetobacter baumannii; conditions: xeruborbactam, meropenem 1× and 2× MIC; aztreonam 2× MIC; amdinocillin 2 μg/mL
Method: Single colonies of K. pneumoniae strain KPM1026a, A. baumannii strain ATCC 17978, and P. aeruginosa strain PAM1154 were picked from LB agar plates, inoculated in cation-adjusted Mueller-Hinton broth (CA-MHB), and incubated overnight at 30°C with rolling. Overnight cultures were diluted into fresh CA-MHB and incubated at 30°C, with rolling, until they reached an OD600 of ≈0.12 to 0.15 (equivalent to ~2 × 10^8 CFU/mL). Samples were then treated with compounds and incubated at 30°C, with rolling. After 1 or 2 h of treatment, cells were collected and stained with a dye mix containing FM4-64 (1 μg/mL), DAPI (4′,6-diamidino-2-phenylindole) (2 μg/mL), and SYTOX green (0.5 μM) (Molecular Probes, Invitrogen, or Thermo Fisher Scientific). Cells were transferred onto an agarose pad containing 1.2% agarose and 20% LB medium for microscopy. Microscopy was performed as previously described ([34]).

[2] = test system: Pseudomonas aeruginosa; assay: Broth microdilution MIC (CLSI), Pseudomonas aeruginosa; type: cell-based
Source text: (§1) (i) Panels of engineered bacterial strains containing various combinations of porin and efflux mutations were used. The construction of all the strains used in the study is described in detail in references, [44], and [45]. (ii) KPC-producing clinical isolates and their derivatives that lost KPC plasmids were used also. These strains and their origins are described in the Table S2. (iii) Finally, KPC-producing clinical isolates enriched in strains with porin mutations were used. The mutations identified include various deletions, insertions, nonsense mutations, and decreased expression. Most of the isolates were obtained from JMI Laboratories or International Health Management Associates (IHMA); they were collected in the course of global surveillance studies.
(§2) Bacterial isolates were subjected to broth microdilution susceptibility testing, performed according to Clinical and Laboratory Standards Institute (CLSI) methods ([46]), using panels prepared in-house. […] Xeruborbactam was synthesized at Qpex Biopharma, San Diego, CA. Avibactam was purchased from eNovation Chemicals LLC, Bridgewater, NJ, USA; zidebactam was from MedKoo Biosciences, Inc., Morrisville, NC, and nacubactam was from Advanced ChemBlocks, Hayward, CA. Durlobactam was synthesized at Acme Bioscience, Palo Alto, CA, USA.

[3] = test system: Acinetobacter baumannii; assay: Broth microdilution MIC (CLSI), Acinetobacter baumannii; type: cell-based; conditions: Acinetobacter baumannii
Source text: as §1, §2

[4] = test system: Escherichia coli; assay: Broth microdilution MIC (CLSI), Escherichia coli; type: cell-based
Source text: as §1, §2

SMILES: C[C@H]1[C@H](NC(=O)/C(=N\OC(C)(C)C(=O)O)c2csc(N)n2)C(=O)N1S(=O)(=O)O [Aztreonam]
- cellular morphology [1]: increase in cell length
- MIC ([2]; PAM1154 (oprM::Hg), xeruborbactam 0 µg/ml): 0.5 µg/mL
- MIC ([2]; Pseudomonas aeruginosa, strain 1089003, alone, read-out: MIC): 0.5 µg/mL
- MIC ([2]; Pseudomonas aeruginosa, strain 1097436, alone, read-out: MIC): 64 µg/mL
- MIC ([2]; Pseudomonas aeruginosa, strain 1098916, alone, read-out: MIC): 0.5 µg/mL
- MIC ([2]; Pseudomonas aeruginosa, strain 1104168, alone, read-out: MIC): 1 µg/mL
- MIC ([2]; Pseudomonas aeruginosa, strain 1104284, alone, read-out: MIC): 0.5 µg/mL
- MIC ([2]; Pseudomonas aeruginosa, strain 1106973, alone, read-out: MIC): 2 µg/mL
- MIC ([2]; Pseudomonas aeruginosa, strain 1109744, alone, read-out: MIC): 0.5 µg/mL
- MIC ([2]; Pseudomonas aeruginosa, strain 1113238, alone, read-out: MIC): 32 µg/mL
- MIC ([2]; Pseudomonas aeruginosa, strain 1113634, alone, read-out: MIC): 4 µg/mL
- MIC ([2]; Pseudomonas aeruginosa, strain 1116835, alone, read-out: MIC): 0.5 µg/mL
- MIC ([2]; Pseudomonas aeruginosa, strain 1116849, alone, read-out: MIC): 2 µg/mL
- MIC ([2]; Pseudomonas aeruginosa, strain 1118234, alone, read-out: MIC): 32 µg/mL
- MIC ([2]; Pseudomonas aeruginosa, strain 1119418, alone, read-out: MIC): 32 µg/mL
- MIC ([2]; Pseudomonas aeruginosa, strain 1125954, alone, read-out: MIC): 1 µg/mL
- MIC ([2]; Pseudomonas aeruginosa, strain 1125996, alone, read-out: MIC): > 64 µg/mL
- MIC ([2]; Pseudomonas aeruginosa, strain 1126521, alone, read-out: MIC): 0.5 µg/mL
- MIC ([2]; Pseudomonas aeruginosa, strain 1126957, alone, read-out: MIC): > 64 µg/mL
- MIC ([2]; Pseudomonas aeruginosa, strain 1126982, alone, read-out: MIC): 0.5 µg/mL
- MIC ([2]; Pseudomonas aeruginosa, strain 1128636, alone, read-out: MIC): 2 µg/mL
- MIC ([2]; Pseudomonas aeruginosa, strain 1128674, alone, read-out: MIC): 4 µg/mL
- MIC ([2]; Pseudomonas aeruginosa, strain 1130447, alone, read-out: MIC): > 64 µg/mL
- MIC ([2]; Pseudomonas aeruginosa, strain PAM1020, wild type, read-out: MIC): 4 µg/mL
- MIC ([2]; Pseudomonas aeruginosa, strain PAM1032, nalB (MexAB-OprM overexpression)): 16 µg/mL
- MIC ([2]; Pseudomonas aeruginosa, strain PAM1033, nfxB (MexCD-OprJ overexpression)): 1 µg/mL
- MIC ([2]; Pseudomonas aeruginosa, strain PAM1034, nfxC (MexEF-OprN overexpression)): 4 µg/mL
- MIC ([3]; AB1007 (no beta-lactamase), xeruborbactam 0 µg/ml, read-out: MIC): 32 µg/mL
- MIC ([3]; AB1007, xeruborbactam 2 µg/ml, read-out: MIC): 32 µg/mL
- MIC ([3]; AB1007, xeruborbactam 4 µg/ml, read-out: MIC): 16 µg/mL
- MIC ([3]; AB1007, xeruborbactam 8 µg/ml, read-out: MIC): 4 µg/mL
- MIC ([3]; ATCC17978, strain ATCC 17978 (Fig. 6), read-out: MIC): 32 µg/mL
- MIC ([3]; strain AB1007, wild type, read-out: MIC): 32 µg/mL
- MIC ([3]; strain ACM1013, ΔadeIJK): 1 µg/mL
- MIC ([3]; strain ACM1014, ΔadeABC): 16 µg/mL
- MIC ([3]; strain ACM1015, ΔadeIJK ΔadeABC): 1 µg/mL
- MIC ([3]; strain ACM1027, adeN (AdeIJK overexpression)): 64 µg/mL
- MIC ([3]; strain ACM1030, adeS (AdeABC overexpression)): 16 µg/mL
- MIC ([4]; EC1078, PBP2 same as MG1655, PBP3 I332V): 64
- MIC ([4]; EC1081, PBP2 same as MG1655, PBP3 Q227H): 64
- MIC ([4]; EC1085, PBP2 T331P, PBP3 A233T I332V): 2
- MIC ([4]; EC1088, PBP2 A308G, PBP3 same as MG1655): > 64
- MIC ([4]; EC1097, PBP2 M574I, PBP3 Q227H): > 64
- MIC ([4]; EC1098, PBP2 V217M, PBP3 YRIN ins, I532L): 64
- MIC ([4]; EC1103, PBP2 same as MG1655, PBP3 YRIN ins, Q227H, E349K, I532L): 32
- MIC ([4]; EC1105, PBP2 A543T, PBP3 YRIN ins, Q227H, E349K, I532L): > 64
- MIC ([4]; EC1119, PBP2 same as MG1655, PBP3 YRIN ins, Q227H, E349K, I532L): > 64
- MIC ([4]; EC1121, PBP2 V217M, PBP3 YRIN ins, E349K, I532L): > 64
- MIC ([4]; Escherichia coli, strain ECM5497, wild type, read-out: MIC): 0.03 µg/mL
- MIC ([4]; Escherichia coli, strain ECM6001, ΔacrB): 0.03 µg/mL
